Measurements taken from PubChem BioAssay (NCI).
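How tested: cells in 96-well plates exposed to compound for 48 hours at five concentrations. TGI denotes the concentration required for complete inhibition of growth.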

What was measured:
Test in all cases: NCI-60 cell line screen, 48 h
CAKI-1 renal = system: CAKI-1 renal
SK-OV-3 ovarian = system: SK-OV-3 ovarian
K-562 leukemia = system: K-562 leukemia
SK-MEL-2 melanoma = system: SK-MEL-2 melanoma
HCC-2998 colon = system: HCC-2998 colon
OVCAR-5 ovarian = system: OVCAR-5 ovarian
SN12C renal = system: SN12C renal
MDA-MB-435 = system: MDA-MB-435
SK-MEL-28 melanoma = system: SK-MEL-28 melanoma
786-0 renal = system: 786-0 renal
OVCAR-4 ovarian = system: OVCAR-4 ovarian
MOLT-4 leukemia = system: MOLT-4 leukemia
SF-539 CNS = system: SF-539 CNS
MDA-N = system: MDA-N
HS 578T breast = system: HS 578T breast
CCRF-CEM leukemia = system: CCRF-CEM leukemia
TK-10 renal = system: TK-10 renal
HCT-15 colon = system: HCT-15 colon
HT29 colon = system: HT29 colon
A549 NSCLC = system: A549 NSCLC

## COC1=C2CC(C)CC(OC)C(OC(=O)CCCN)C(C)/C=C(\C)C(OC(N)=O)C(OC)/C=C\C=C(/C)C(=O)NC(=CC1=O)C2=O (stereo not drawn)
CAKI-1 renal
  TGI: 23.3 µM
SK-OV-3 ovarian
  TGI: 35.1 µM
K-562 leukemia
  TGI: 19.4 µM
SK-MEL-2 melanoma
  TGI: 26.9 µM
HCC-2998 colon
  TGI: 19.4 µM
OVCAR-5 ovarian
  TGI: 23.8 µM
SN12C renal
  TGI: 16.1 µM
MDA-MB-435
  TGI: 12.4 µM
SK-MEL-28 melanoma
  TGI: 23.7 µM
786-0 renal
  TGI: 18.1 µM
OVCAR-4 ovarian
  TGI: 20.4 µM
MOLT-4 leukemia
  TGI: 3.81 µM
SF-539 CNS
  TGI: 16.9 µM
MDA-N
  TGI: 20.7 µM
HS 578T breast
  TGI: 40.7 µM
CCRF-CEM leukemia
  TGI: 3.59 µM
TK-10 renal
  TGI: 20.2 µM
HCT-15 colon
  TGI: 14.5 µM
HT29 colon
  TGI: 13.2 µM
A549 NSCLC
  TGI: 55.1 µM

## COc1ccccc1C1c2cc3c(cc2OC(N2CCCC2)C1C)OCO3 (stereo not drawn)
CAKI-1 renal
  TGI: 31.4 µM
K-562 leukemia
  TGI: > 53.3 µM
SK-MEL-2 melanoma
  TGI: 29.8 µM
HCC-2998 colon
  TGI: 32.9 µM
OVCAR-5 ovarian
  TGI: 41.1 µM
SN12C renal
  TGI: 39.7 µM
MDA-MB-435
  TGI: 34.2 µM
SK-MEL-28 melanoma
  TGI: 48 µM
786-0 renal
  TGI: 35.3 µM
OVCAR-4 ovarian
  TGI: 70.5 µM
SF-539 CNS
  TGI: 31.7 µM
MDA-N
  TGI: 28.9 µM
HS 578T breast
  TGI: 30 µM
CCRF-CEM leukemia
  TGI: 47.8 µM
TK-10 renal
  TGI: 47.9 µM
HCT-15 colon
  TGI: 44.6 µM
HT29 colon
  TGI: 39.5 µM
A549 NSCLC
  TGI: 46 µM

## Cc1ccc(S(=O)(=O)N2CCN(S(=O)(=O)c3ccc(C)cc3)CCN(S(=O)(=O)c3ccc(C)cc3)Cc3cc(Br)c(Br)cc3CN(S(=O)(=O)c3ccc(C)cc3)CC2)cc1
CAKI-1 renal
  TGI: > 100 µM
SK-OV-3 ovarian
  TGI: > 100 µM
K-562 leukemia
  TGI: > 100 µM
HCC-2998 colon
  TGI: > 100 µM
OVCAR-5 ovarian
  TGI: > 100 µM
SN12C renal
  TGI: > 100 µM
MDA-MB-435
  TGI: > 100 µM
SK-MEL-28 melanoma
  TGI: > 100 µM
786-0 renal
  TGI: > 100 µM
OVCAR-4 ovarian
  TGI: > 100 µM
MOLT-4 leukemia
  TGI: > 100 µM
SF-539 CNS
  TGI: > 100 µM
MDA-N
  TGI: > 100 µM
HS 578T breast
  TGI: > 100 µM
CCRF-CEM leukemia
  TGI: > 100 µM
TK-10 renal
  TGI: > 100 µM
HCT-15 colon
  TGI: > 100 µM
HT29 colon
  TGI: > 100 µM
A549 NSCLC
  TGI: > 100 µM

## COc1ccc(NC/C=C/C(=C/COC(C)=O)OC(C)=O)cc1
CAKI-1 renal
  TGI: 4.18 µM
SK-OV-3 ovarian
  TGI: 28.2 µM
K-562 leukemia
  TGI: 3.62 µM
SK-MEL-2 melanoma
  TGI: 5.58 µM
HCC-2998 colon
  TGI: 6.84 µM
OVCAR-5 ovarian
  TGI: 3.38 µM
MDA-MB-435
  TGI: 3.14 µM
SK-MEL-28 melanoma
  TGI: 3.89 µM
786-0 renal
  TGI: 2.44 µM
OVCAR-4 ovarian
  TGI: 3.26 µM
MOLT-4 leukemia
  TGI: > 100 µM
SF-539 CNS
  TGI: 3.8 µM
MDA-N
  TGI: 4.07 µM
HS 578T breast
  TGI: 6.12 µM
CCRF-CEM leukemia
  TGI: 5.12 µM
TK-10 renal
  TGI: 3.74 µM
HCT-15 colon
  TGI: 5.1 µM
A549 NSCLC
  TGI: 33 µM

## FC(F)(F)c1cccnc1Sc1nc2ccccc2s1
CAKI-1 renal
  TGI: > 100 µM
K-562 leukemia
  TGI: > 100 µM
SK-MEL-2 melanoma
  TGI: > 100 µM
HCC-2998 colon
  TGI: > 100 µM
OVCAR-5 ovarian
  TGI: > 100 µM
SN12C renal
  TGI: > 100 µM
MDA-MB-435
  TGI: > 100 µM
SK-MEL-28 melanoma
  TGI: > 100 µM
786-0 renal
  TGI: > 100 µM
OVCAR-4 ovarian
  TGI: > 100 µM
MOLT-4 leukemia
  TGI: > 100 µM
SF-539 CNS
  TGI: > 100 µM
MDA-N
  TGI: > 100 µM
HS 578T breast
  TGI: > 100 µM
CCRF-CEM leukemia
  TGI: > 100 µM
TK-10 renal
  TGI: > 100 µM
HCT-15 colon
  TGI: > 100 µM
HT29 colon
  TGI: > 100 µM
A549 NSCLC
  TGI: > 100 µM

## COc1ccc(NC(=O)C(=O)Cc2nc3ccc(C(=O)c4ccccc4)cc3[nH]c2=O)c([N+](=O)[O-])c1
CAKI-1 renal
  TGI: > 100 µM
SK-OV-3 ovarian
  TGI: > 100 µM
SK-MEL-2 melanoma
  TGI: > 100 µM
HCC-2998 colon
  TGI: > 100 µM
OVCAR-5 ovarian
  TGI: > 100 µM
SN12C renal
  TGI: > 100 µM
MDA-MB-435
  TGI: 66.1 µM
SK-MEL-28 melanoma
  TGI: > 100 µM
786-0 renal
  TGI: > 100 µM
OVCAR-4 ovarian
  TGI: > 100 µM
MOLT-4 leukemia
  TGI: 40.1 µM
SF-539 CNS
  TGI: > 100 µM
MDA-N
  TGI: > 100 µM
HS 578T breast
  TGI: > 100 µM
CCRF-CEM leukemia
  TGI: 61.4 µM
TK-10 renal
  TGI: > 100 µM
HCT-15 colon
  TGI: > 100 µM
HT29 colon
  TGI: 35.9 µM
A549 NSCLC
  TGI: > 100 µM
